According to patent publication US8247211B2, “Glycopeptide antibiotics” (American Cyanamid Company, priority 2001, dated 2012):
Converted amounts (≈) assume the structure as drawn.

Experiments:
Assay in all cases: In vitro antibacterial evaluation: minimum inhibitory concentration (MIC), broth dilution method
Format in all cases: cell-based
[1] = tested on: Escherichia coli; settings: 5×10^5 CFU/mL, 18 hours at 35° C.
Description: (§1) The minimum inhibitory concentration (MIC), the lowest concentration of the antibiotic which inhibits growth of the test organism, is determined by the broth dilution method using Muller-Hinton II […] (Baltimore Biological Laboratories) following the recommendations of the National Committee for Clinical Laboratory Standards [Methods for dilution antimicrobial susceptibility tests for bacteria that grow aerobically, approved standard M7-A2, National Committee for Clinical Laboratory Standards, Villanova, Pa].
(§2) An inoculum level of 5×10^5 CFU/mL, and a range of antibiotic concentrations (64-0.06 μg/mL) is used. […] The test organisms include a spectrum of Gram-positive bacteria comprised of Staphylococcus sp., Streptococcus sp. and Enterococcus sp. These organisms include recent clinical isolates that are resistant to methicillin, penicillin and/or vancomycin.

[2] = tested on: Enterococcus sp.; settings: broth dilution, 5×10^5 CFU/mL, 18 hours at 35° C.
Description: as §1, §2

[3] = tested on: Staphylococcus sp.; settings: for MIC Staphylococcus aureus (ATCC 29213): strain ATCC 29213; for MIC Staphylococcus aureus (GC 1131): strain GC 1131; for MIC Staphylococcus aureus (GC 3051): strain GC 3051; for MIC Staphylococcus aureus (GC 3053): strain GC 3053; for MIC Staphylococcus aureus (GC 4541): strain GC 4541; for MIC Staphylococcus aureus (GC 4542): strain GC 4542; for MIC Staphylococcus aureus-SMITH (GC 4543): strain GC 4543; for MIC Staphylococcus aureus (GC 4544): strain GC 4544; for MIC Staphylococcus aureus (GC 4545): strain GC 4545; for MIC Coagulase Negative Staphylococcus (GC 4547): strain GC 4547; for MIC Coagulase Negative Staphylococcus (GC 4551): strain GC 4551; for MIC Staphylococcus haemolyticus (GC 4546): strain GC 4546; for MIC Coagulase Negative Staphylococcus (GC 4548): strain GC 4548; for MIC Coagulase Negative Staphylococcus (GC 4549): strain GC 4549; for MIC Coagulase Negative Staphylococcus (GC 6257): strain GC 6257
Description: as §1, §2

[4] = tested on: Streptococcus sp.; settings: broth dilution, 5×10^5 CFU/mL, 18 hours at 35° C.
Description: as §1, §2

[5] = broth dilution, 18 hours at 35° C.

CC(c1ccccc1)C1NC(=O)CNC(=O)C(CO)NC(=O)C(C(O)C2CNC(=N)N2C2OC(CO)C(O)C(O)C2O)NC(=O)C(C(O)C2CNC(=N)N2)NC(=O)C(Cc2ccc(OC3OC(CO)C(OC4OC5COC(Cc6ccc(Br)cc6)OC5C(O)C4O)C(O)C3O)cc2)NC1=O (stereo not drawn) [Example 118, Cyclo[glycyl-β-methylphenylalanyl-O-[4-O-[4,6-O-(4-bromophenethylidene)hexopyranosyl]-hexopyranosyl]tyrosyl-3-(2-iminoimidazolidin-4-yl)seryl-3-(3-hexopyranosyl-2-iminoimidazolidin-4-yl)serylseryl]]
MIC Escherichia coli (GC 4559) [1]: 16 µg/mL (≈ 10.8 µM)
MIC Escherichia coli (GC 4560) [1]: 1 µg/mL (≈ 0.677 µM)
MIC Enterococccus avium (GC 4558) [2]: 1 to 2 µg/mL
MIC Enterococccus faecalis (ATCC 29212) [2]: 1 to 2 µg/mL
MIC Enterococccus faecalis (GC 2691) [2]: 1 to 2 µg/mL
MIC Enterococccus faecalis (GC 3059) [2]: 1 to 2 µg/mL
MIC Enterococccus faecalis (GC 4552) [2]: 1 to 2 µg/mL
MIC Enterococccus faecalis (GC 4553) [2]: 1 to 2 µg/mL
MIC Enterococccus faecalis (GC 4554) [2]: 1 to 2 µg/mL
MIC Enterococccus faecalis (GC 6189) [2]: 1 to 2 µg/mL
MIC Enterococccus faecium (GC 2243) [2]: 1 µg/mL (≈ 0.677 µM)
MIC Enterococccus faecium (GC 4556) [2]: <0.5 to 1 µg/mL
MIC Enterococccus faecium (GC 4557) [2]: <0.5 to 2 µg/mL
MIC Enterococcus faecalis (GC 2242) [2]: <0.5 to 2 µg/mL
MIC Staphylococcus aureus (ATCC 29213) [3]: <0.5 to 1 µg/mL
MIC Staphylococcus aureus (ATCC 29213) [3, 5]: <0.5 to 1 µg/mL
MIC Staphylococcus aureus (GC 1131) [3]: <0.5 to 1 µg/mL
MIC Staphylococcus aureus (GC 1131) [3, 5]: <0.5 to 1 µg/mL
MIC Staphylococcus aureus (GC 3051) [3]: <0.5 to 1 µg/mL
MIC Staphylococcus aureus (GC 3051) [3, 5]: <0.5 to 1 µg/mL
MIC Staphylococcus aureus (GC 3053) [3]: 1 µg/mL (≈ 0.677 µM)
MIC Staphylococcus aureus (GC 3053) [3, 5]: 1 µg/mL (≈ 0.677 µM)
MIC Staphylococcus aureus (GC 4541) [3]: <0.5 to 1 µg/mL
MIC Staphylococcus aureus (GC 4541) [3, 5]: <0.5 to 1 µg/mL
MIC Staphylococcus aureus (GC 4542) [3]: <0.5 to 1 µg/mL
MIC Staphylococcus aureus (GC 4542) [3, 5]: <0.5 to 1 µg/mL
MIC Staphylococcus aureus-SMITH (GC 4543) ([3]; 18 hours at 35° C.): <0.5 to 1 µg/mL
MIC Staphylococcus aureus-SMITH (GC 4543) [3, 5]: <0.5 to 1 µg/mL
MIC Staphylococcus aureus (GC 4544) [3]: <0.5 to 1 µg/mL
MIC Staphylococcus aureus (GC 4544) [3, 5]: <0.5 to 1 µg/mL
MIC Staphylococcus aureus (GC 4545) [3]: <0.5 to 1 µg/mL
MIC Staphylococcus aureus (GC 4545) [3, 5]: <0.5 to 1 µg/mL
MIC Coagulase Negative Staphylococcus (GC 4547) [3]: <0.5 to 1 µg/mL
MIC Coagulase Negative Staphylococcus (GC 4547) [3, 5]: <0.5 to 1 µg/mL
MIC Coagulase Negative Staphylococcus (GC 4551) [3]: <0.5 to 1 µg/mL
MIC Coagulase Negative Staphylococcus (GC 4551) [3, 5]: <0.5 to 1 µg/mL
MIC Streptococcus agalactiae (GC 4564) [4]: <0.06 µg/mL
MIC Streptococcus pneumoniae (GC 1894) [4]: <0.06 µg/mL
MIC Streptococcus pneumoniae (GC 4565) [4]: <0.06 µg/mL
MIC Streptococcus pneumonine (ATCC 6301) [4]: <0.06 µg/mL
MIC Streptococcus pyogenes (GC 4563) [4]: <0.06 µg/mL

CC(c1ccccc1)C1NC(=O)CNC(=O)C(CO)NC(=O)C(C(O)C2CNC(=N)N2C2OC(CO)C(O)C(O)C2O)NC(=O)C(C(O)C2CNC(=N)N2)NC(=O)C(Cc2ccc(OC3OC(CO)C(OC4OC5COC(CC6CCCCC6)OC5C(O)C4O)C(O)C3O)cc2)NC1=O (stereo not shown) [Example 122]
MIC Escherichia coli (ATCC 25922) [1]: 32 µg/mL (≈ 22.8 µM)
MIC Escherichia coli (GC 4559) [1]: 32 µg/mL (≈ 22.8 µM)
MIC Escherichia coli (GC 4560) [1]: 2 µg/mL (≈ 1.43 µM)
MIC Enterococccus avium (GC 4558) [2]: 2 µg/mL (≈ 1.43 µM)
MIC Enterococccus faecalis (ATCC 29212) [2]: 2 µg/mL (≈ 1.43 µM)
MIC Enterococccus faecalis (GC 2691) [2]: 2 µg/mL (≈ 1.43 µM)
MIC Enterococccus faecalis (GC 3059) [2]: 2 µg/mL (≈ 1.43 µM)
MIC Enterococccus faecalis (GC 4552) [2]: 2 µg/mL (≈ 1.43 µM)
MIC Enterococccus faecalis (GC 4553) [2]: 4 µg/mL (≈ 2.85 µM)
MIC Enterococccus faecalis (GC 4554) [2]: 2 µg/mL (≈ 1.43 µM)
MIC Enterococccus faecalis (GC 6189) [2]: 2 µg/mL (≈ 1.43 µM)
MIC Enterococccus faecium (GC 2243) [2]: 2 µg/mL (≈ 1.43 µM)
MIC Enterococccus faecium (GC 4556) [2]: 2 µg/mL (≈ 1.43 µM)
MIC Enterococccus faecium (GC 4557) [2]: 4 µg/mL (≈ 2.85 µM)
MIC Enterococcus faecalis (GC 2242) [2]: 2 µg/mL (≈ 1.43 µM)
MIC Staphylococcus aureus (ATCC 29213) [3]: 2 µg/mL (≈ 1.43 µM)
MIC Staphylococcus aureus (ATCC 29213) [3, 5]: 2 µg/mL (≈ 1.43 µM)
MIC Staphylococcus aureus (GC 1131) [3]: 2 µg/mL (≈ 1.43 µM)
MIC Staphylococcus aureus (GC 1131) [3, 5]: 2 µg/mL (≈ 1.43 µM)
MIC Staphylococcus aureus (GC 3051) [3]: 2 µg/mL (≈ 1.43 µM)
MIC Staphylococcus aureus (GC 3051) [3, 5]: 2 µg/mL (≈ 1.43 µM)
MIC Staphylococcus aureus (GC 3053) [3]: 2 µg/mL (≈ 1.43 µM)
MIC Staphylococcus aureus (GC 3053) [3, 5]: 2 µg/mL (≈ 1.43 µM)
MIC Staphylococcus aureus (GC 4541) [3]: 2 µg/mL (≈ 1.43 µM)
MIC Staphylococcus aureus (GC 4541) [3, 5]: 2 µg/mL (≈ 1.43 µM)
MIC Staphylococcus aureus (GC 4542) [3]: 2 µg/mL (≈ 1.43 µM)
MIC Staphylococcus aureus (GC 4542) [3, 5]: 2 µg/mL (≈ 1.43 µM)
MIC Staphylococcus aureus-SMITH (GC 4543) ([3]; 18 hours at 35° C.): 2 µg/mL (≈ 1.43 µM)
MIC Staphylococcus aureus-SMITH (GC 4543) [3, 5]: 2 µg/mL (≈ 1.43 µM)
MIC Staphylococcus aureus (GC 4544) [3]: 1 µg/mL (≈ 0.713 µM)
MIC Staphylococcus aureus (GC 4544) [3, 5]: 1 µg/mL (≈ 0.713 µM)
MIC Staphylococcus aureus (GC 4545) [3]: 2 µg/mL (≈ 1.43 µM)
MIC Staphylococcus aureus (GC 4545) [3, 5]: 2 µg/mL (≈ 1.43 µM)
MIC Staphylococcus haemolyticus (GC 4546) [3]: 2 µg/mL (≈ 1.43 µM)
MIC Staphylococcus haemolyticus (GC 4546) [3, 5]: 2 µg/mL (≈ 1.43 µM)
MIC Coagulase Negative Staphylococcus (GC 4547) [3]: 2 µg/mL (≈ 1.43 µM)
MIC Coagulase Negative Staphylococcus (GC 4547) [3, 5]: 2 µg/mL (≈ 1.43 µM)
MIC Coagulase Negative Staphylococcus (GC 4548) [3]: 1 µg/mL (≈ 0.713 µM)
MIC Coagulase Negative Staphylococcus (GC 4548) [3, 5]: 1 µg/mL (≈ 0.713 µM)
MIC Coagulase Negative Staphylococcus (GC 4549) [3]: 1 µg/mL (≈ 0.713 µM)
MIC Coagulase Negative Staphylococcus (GC 4549) [3, 5]: 1 µg/mL (≈ 0.713 µM)
MIC Coagulase Negative Staphylococcus (GC 4551) [3]: 2 µg/mL (≈ 1.43 µM)
MIC Coagulase Negative Staphylococcus (GC 4551) [3, 5]: 2 µg/mL (≈ 1.43 µM)
MIC Coagulase Negative Staphylococcus (GC 6257) [3]: 1 µg/mL (≈ 0.713 µM)
MIC Coagulase Negative Staphylococcus (GC 6257) [3, 5]: 1 µg/mL (≈ 0.713 µM)
MIC Streptococcus agalactiae (GC 4564) [4]: 0.12 µg/mL (≈ 0.0855 µM)
MIC Streptococcus pneumoniae (GC 1894) [4]: <0.06 µg/mL
MIC Streptococcus pneumoniae (GC 4565) [4]: 0.12 µg/mL (≈ 0.0855 µM)
MIC Streptococcus pneumonine (ATCC 6301) [4]: <0.06 µg/mL
MIC Streptococcus pyogenes (GC 4563) [4]: <0.06 µg/mL
